Experimental findings from patent EP4085921A1 (priority 2021, dated 2022) are described below.

The conditions of data set [1]: as a function of the treatment time interval; Fig. 18.

As to `CC[C@H](C)[C@H](NC(=O)[C@H](Cc1ccc(O)cc1)NC(=O)[C@@H](NC(=O)[C@H](CCCNC(=N)N)NC(=O)[C@@H](N)CC(=O)O)C(C)C)C(=O)N[C@@H](Cc1c[nH]cn1)C(=O)N1CCC[C@H]1C(=O)O` [Angiotensin-(1-7), Asp-Arg-Val-Tyr-Ile-His-Pro], under “5 to 25 mcg/kg/24h range as stated”, the “side-effects in the clinical trial” value was “very safe without severe Ang-(1-7)-related side-effects”. Besides, where the note is “Ang-(1-7) administration in the defined concentration range”, the hypotension as side-effect result was “not a side-effect”. In addition, where the note is “at 11 am and 11 pm as a function of ICU days with infusion, Fig. 10, 11”, the “averaged blood pressure (SBP, MAP, DBP)” value is on record as “not significantly influenced”. Moreover, the averaged heart rate result (at 11 am and 11 pm as a function of ICU days with infusion, Fig. 14, 15) is “not influences”. Besides, under “at 11 am during infusion, Fig. 16”, the average temperatures entry is listed as “not significantly influenced”. Moreover, the “averaged Angiotensin-(1-7) levels” value in data set [1] is given as “does not result in increased Ang-(1-7) levels”.
